IC50 data for 18 compounds are collected here from patent publication US20130338152A1, “FLUOROPHENYL BICYCLIC HETEROARYL COMPOUNDS” (IRM LLC, priority 2011, published 2013).

What is called IC50 is the midpoint of a concentration-inhibition curve. A higher IC50 goes with a need for much substance.

The target in the test is IGF1R (Homo sapiens, UniProt P08069). Kind of test: Cellular IGF-1R assay: inhibition of IGF1R phosphorylation in Hek293 cells, capture ELISA (MSD). More on the design: expressed in transfected cells; host or cells: Hek293 (Hek293-IGF1R). The note with it: IGF-triggered receptor phosphorylation. The test is classed as cell-based. The protocol: IVa. Cellular IGF-1R and InsR Assays
IGF1R, sequence (P08069 31-1367): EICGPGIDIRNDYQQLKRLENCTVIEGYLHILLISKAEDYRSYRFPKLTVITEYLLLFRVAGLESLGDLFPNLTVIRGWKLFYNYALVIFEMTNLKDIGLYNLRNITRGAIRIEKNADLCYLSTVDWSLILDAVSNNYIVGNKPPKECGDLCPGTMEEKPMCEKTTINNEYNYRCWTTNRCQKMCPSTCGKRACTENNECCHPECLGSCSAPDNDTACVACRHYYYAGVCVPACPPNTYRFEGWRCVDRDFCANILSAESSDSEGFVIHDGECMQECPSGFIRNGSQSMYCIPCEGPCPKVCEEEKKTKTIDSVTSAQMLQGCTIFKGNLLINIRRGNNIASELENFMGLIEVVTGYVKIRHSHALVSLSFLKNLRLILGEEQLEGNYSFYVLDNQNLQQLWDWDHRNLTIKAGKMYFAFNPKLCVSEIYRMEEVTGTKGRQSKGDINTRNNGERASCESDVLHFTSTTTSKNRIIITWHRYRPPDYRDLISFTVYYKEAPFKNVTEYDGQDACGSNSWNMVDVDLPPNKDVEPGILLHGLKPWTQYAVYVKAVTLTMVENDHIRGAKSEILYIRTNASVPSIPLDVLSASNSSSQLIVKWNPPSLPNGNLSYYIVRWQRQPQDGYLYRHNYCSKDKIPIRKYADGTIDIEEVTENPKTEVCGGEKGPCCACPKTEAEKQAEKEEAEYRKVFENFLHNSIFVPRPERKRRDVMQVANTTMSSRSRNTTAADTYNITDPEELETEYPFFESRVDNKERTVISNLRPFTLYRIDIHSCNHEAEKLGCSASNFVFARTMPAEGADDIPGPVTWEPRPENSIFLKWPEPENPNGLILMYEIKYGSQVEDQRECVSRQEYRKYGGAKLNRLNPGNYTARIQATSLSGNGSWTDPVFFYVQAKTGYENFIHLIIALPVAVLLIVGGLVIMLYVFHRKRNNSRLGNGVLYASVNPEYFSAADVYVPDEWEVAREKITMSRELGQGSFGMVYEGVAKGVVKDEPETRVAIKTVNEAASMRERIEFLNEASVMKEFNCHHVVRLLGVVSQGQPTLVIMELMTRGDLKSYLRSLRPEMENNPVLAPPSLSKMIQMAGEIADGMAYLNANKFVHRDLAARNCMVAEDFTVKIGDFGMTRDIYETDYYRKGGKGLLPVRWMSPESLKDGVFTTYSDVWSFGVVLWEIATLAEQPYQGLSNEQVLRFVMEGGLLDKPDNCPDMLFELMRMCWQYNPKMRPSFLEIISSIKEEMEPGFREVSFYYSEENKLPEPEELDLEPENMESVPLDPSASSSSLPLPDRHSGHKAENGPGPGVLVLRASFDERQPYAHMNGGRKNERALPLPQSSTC
Compound-mediated inhibition of IGF1R and INSR phosphorylation in Hek293 cells transduced with the corresponding receptors is assessed in a capture ELISA format using the MSD (Meso Scale Discovery) platform. Briefly, 30′000 cells washed and diluted in starvation medium (DMEM high glucose supplemented with 0.1% BSA) are seeded in 90 μL per well into 96-well plates pre-coated with poly-D-lysine (0.1 mg/mL in PBS/O). After 24 h incubation at 37° C. and 5% CO2, dose-response effects are determined with 3-fold serial compound dilutions, starting at 10 μM. The final vehicle concentration is 0.1% DMSO in all wells. Following pre-incubation with compounds for 1 h, receptor phosphorylation is triggered by a 10 min exposure to 1.0 ng/μL IGF for Hek293-IGF1R cells, and 5.0 ng/μL insulin for Hek293-InsR cells. Cell lysis is achieved by addition of 80 μL MSD lysis buffer per aspirated well, incubation on ice for 20 min, and a freeze-thaw cycle. Target phosphorylation is then assessed by transferring volumes corresponding to approx. 6 μg Hek293-IGF1R or 0.6 μg Hek293-InsR lysates to MSD assay plates pre-coated with total-IGF1R or total-InsR Abs, respectively. […] Immune complexes are detected by a SULFO-Tag™-coupled anti-rabbit IgG antibody in the presence of 150 μL MSD read-buffer. Light emission at 620 nm triggered by application of electric current is recorded on a MSD Sectorlmager 6000. Acquired raw data (mean Ru-ECL units) are processed in an Excel analysis template. The plate blank (MSD lysis buffer) is subtracted from all data points. The effect of a particular test compound concentration on receptor phosphorylation is expressed relative to the window defined by ligand-stimulated vs unstimulated control cells (set as 100%). IC50 values [nM] are determined using 4-parametric curve-fitting (XLfit software, V4.3.2).
Background: ELISA stands for enzyme-linked immunosorbent assay.
`Nc1ncnc2c1c(-c1cc(OCC3CCCO3)ccc1F)cn2[C@H]1C[C@@H](CN2CCS(=O)(=O)CC2)C1` (mixture of isomers) [Example 43, (±)-7-[cis-3-(1,1-Dioxo-1-thiomorpholin-4-ylmethyl)-cyclobutyl]-5-[2-fluoro-5-(tetrahydro-furan-2-ylmethoxy)-phenyl]-7H-pyrrolo[2,3-d]pyrimidin-4-ylamine]: the IC50 stood at 19 nM.
`CC(=O)NC[C@H]1C[C@@H](n2cc(-c3cc(OCC4CCCO4)ccc3F)c3c(N)ncnc32)C1` (mixture of isomers) [Example 56, (±)—N-(3-cis-{4-Amino-5-[2-fluoro-5-(tetrahydro-furan-2-ylmethoxy)-phenyl]-pyrrolo[2,3-d]pyrimidin-7-yl}-cyclobutylmethyl)-acetamide] gave an IC50 of 95 nM.
With `Nc1ncnc2c1c(-c1cccc(OCC3CCO3)c1F)cn2[C@H]1C[C@@H](N2CC[S+]([O-])CC2)C1` (relative stereo) [Example 23, 5-[2-Fluoro-3-(oxetan-2-ylmethoxy)-phenyl]-7-[cis-3-(1-oxo-thiomorpholin-4-yl)-cyclobutyl]-7H-pyrrolo[2,3-d]pyrimidin-4-ylamine], the IC50 stood at 452 nM. Against the preceding compound, the IC50 is about 4.8-fold higher.
Under `Nc1ncnc2c1c(-c1cccc(OCC3CCO3)c1F)cn2[C@H]1C[C@@H](CN2CC[S+]([O-])CC2)C1` (relative stereo) [Example 24, 5-[2-Fluoro-3-(oxetan-2-ylmethoxy)-phenyl]-7-[cis-3-(1-oxo-thiomorpholin-4-ylmethyl)-cyclobutyl]-7H-pyrrolo[2,3-d]pyrimidin-4-ylamine] stands 368 nM; under `Nc1ncnc2c1c(-c1ccc(F)c(OCC34CCC(CC3)O4)c1)cn2[C@H]1C[C@@H](CN2CCS(=O)(=O)CC2)C1` (relative stereo) [Example 44, 7-[cis-3-(1,1-Dioxo-1-thiomorpholin-4-ylmethyl)-cyclobutyl]-5-[4-fluoro-3-(7-oxa-bicyclo[2.2.1]hept-1-ylmethoxy)-phenyl]-7H-pyrrolo[2,3-d]pyrimidin-4-ylamine], 18 nM.
Compound `CN1CCN(C[C@H]2C[C@@H](n3cc(-c4ccc(F)c(OCC56CCC(CC5)O6)c4)c4c(N)ncnc43)C2)CC1=O` (relative stereo) [Example 51, 4-(cis-3-{4-Amino-5-[4-fluoro-3-(7-oxa-bicyclo[2.2.1]hept-1-ylmethoxy)-phenyl]-pyrrolo[2,3-d]pyrimidin-7-yl}-cyclobutylmethyl)-1-methyl-piperazin-2-one] registered an IC50 of 110 nM.
Take `Nc1ncnc2c1c(-c1cc(OC[C@@H]3CCCO3)ccc1F)cn2C1CC2(CNC(=O)O2)C1` (single isomer, unassigned) [Example 21]: inhibition was half-maximal at 215 nM (IC50).
The value for `Nc1ncnc2c1c(-c1cc(OC[C@@H]3CCCO3)ccc1F)cn2C1CC(CN2CCS(=O)(=O)CC2)C1` (stereo partly drawn) [Example 2, 7-[3-(1,1-Dioxo-1-thiomorpholin-4-ylmethyl)-cyclobutyl]-5-{2-fluoro-5-[(S)-1-(tetrahydro-furan-2-yl)methoxy]-phenyl}-7H-pyrrolo[2,3-d]pyrimidin-4-ylamine] was 198 nM.
`Nc1ncnc2c1c(-c1cccc(OC[C@H]3CCCO3)c1F)cn2[C@H]1C[C@@H](CN2CC[S+]([O-])CC2)C1` [Example 5, 5-{2-Fluoro-3-[(R)-1-(tetrahydro-furan-2-yl)methoxy]-phenyl}-7-[cis-3-(1-oxo-thiomorpholin-4-ylmethyl)-cyclobutyl]-7H-pyrrolo[2,3-d]pyrimidin-4-ylamine] came in with an IC50 of 16 nM.
Under `CC(=O)N1CCN([C@H]2C[C@@H](n3cc(-c4cccc(OC[C@@H]5CCCO5)c4F)c4c(N)ncnc43)C2)CC1` [Example 9, 1-{4-[cis-3-(4-Amino-5-{2-fluoro-3-[(S)-1-(tetrahydro-furan-2-yl)methoxy]-phenyl}-pyrrolo[2,3-d]pyrimidin-7-yl)-cyclobutyl]-piperazin-1-yl}-ethanone] stands 16 nM; under `Nc1ncnc2c1c(-c1cccc(OC[C@@H]3CCCO3)c1F)cn2[C@H]1C[C@@H](N2CC[S+]([O-])CC2)C1` [Example 12, 5-{2-Fluoro-3-[(S)-1-(tetrahydro-furan-2-yl)methoxy]-phenyl}-7-[cis-3-(1-oxo-thiomorpholin-4-yl)-cyclobutyl]-7H-pyrrolo[2,3-d]pyrimidin-4-ylamine], 25 nM; under `Nc1ncnc2c1c(-c1cccc(OC[C@H]3CCCO3)c1F)cn2[C@H]1C[C@@H](N2CC[S+]([O-])CC2)C1` [Example 13, 5-{2-Fluoro-3-[(R)-1-(tetrahydro-furan-2-yl)methoxy]-phenyl}-7-[cis-3-(1-oxo-thiomorpholin-4-yl)-cyclobutyl]-7H-pyrrolo[2,3-d]pyrimidin-4-ylamine], 42 nM.
The value for `Nc1ncnc2c1c(-c1cc(OC[C@@H]3CCCO3)ccc1F)cn2C1CC2(CNC(=O)O2)C1` (stereo partly drawn) [Example 14, 2-(4-Amino-5-{2-fluoro-5-[(S)-1-(tetrahydro-furan-2-yl)methoxy]-phenyl}-pyrrolo[2,3-d]pyrimidin-7-yl)-5-oxa-7-aza-spiro[3.4]octan-6-one] was 52 nM; that for `[2H]C1([2H])C([2H])([2H])C2(COc3ccc(F)c(-c4cn([C@H]5C[C@@H](N6CC[S+]([O-])CC6)C5)c5ncnc(N)c45)c3)OC1([2H])C([2H])([2H])C2([2H])[2H]` [Example 15, d9-5-[2-Fluoro-5-(7-oxa-bicyclo[2.2.1]hept-1-ylmethoxy)-phenyl]-7-[cis-3-(1-oxo-thiomorpholin-4-yl)-cyclobutyl]-7H-pyrrolo[2,3-d]pyrimidin-4-ylamine] was 10 nM; that for `CC(=O)N1CCN([C@H]2C[C@@H](n3cc(-c4cc(OC[C@H]5CCCO5)ccc4F)c4c(N)ncnc43)C2)CC1` [Example 25, 1-{4-[cis-3-(4-Amino-5-{2-fluoro-5-[(R)-1-(tetrahydro-furan-2-yl)methoxy]-phenyl}-pyrrolo[2,3-d]pyrimidin-7-yl)-cyclobutyl]-piperazin-1-yl}-ethanone] was 159 nM.
Under `CC(=O)N1CCN([C@H]2C[C@@H](n3cc(-c4cc(OC[C@@H]5CCCO5)ccc4F)c4c(N)ncnc43)C2)CC1` [Example 35, 1-{4-[cis-3-(4-Amino-5-{2-fluoro-5-[(S)-1-(tetrahydro-furan-2-yl)methoxy]-phenyl}-pyrrolo[2,3-d]pyrimidin-7-yl)-cyclobutyl]-piperazin-1-yl}-ethanone] stands 13 nM.
`Nc1ncnc2c1c(-c1ccc(F)c(OCC34CCC(CC3)O4)c1)cn2[C@H]1C[C@@](O)(CO)C1` [Example 45, (E)-3-(5-(4-fluoro-3-(7-oxabicyclo[2.2.1]heptan-1-ylmethoxy)phenyl)-4-amino-7H-pyrrolo[2,3-d]pyrimidin-7-yl)-1-(hydroxymethyl)cyclobutanol] returned an IC50 of 461 nM. This IC50 lies about 35-fold higher than the previous one.
On to `Nc1ncnc2c1c(-c1ccc(F)c(OCC34CCC(CC3)O4)c1)cn2[C@H]1C[C@@H](CN2C[C@@H]3CC2C[S@+]3[O-])C1` [Example 48, 5-[4-Fluoro-3-(7-oxa-bicyclo[2.2.1]hept-1-ylmethoxy)-phenyl]-7-[cis-3-((S,S)-2-oxo-2λ4-thia-5-aza-bicyclo[2.2.1]hept-5-ylmethyl)-cyclobutyl]-7H-pyrrolo[2,3-d]pyrimidin-4-ylamine], for which the IC50 is 16 to 98 nM.
